Laboratory results reported in publication PMC6858848 (Bioorganic & medicinal chemistry letters, 2019).
≈ marks a conversion by molar mass, not a printed value.

What was measured:
hERG channels = hERG channels (Homo sapiens, UniProt Q12809); assay: hERG thallium flux assay in HEK 293 cells; conditions: for hERG flux IC50: HEK 293 cells expressing hERG channels
Acid stability = assay type: physicochemical; conditions: HPLC peak areas (254 nm) after heating at 60°C in 1:1 MeCN:0.2N aq. HCl for 24 h, 0.3 mM
ACh release = conditions: read-out: ACh release EC50; cited from earlier work
[1] = tested on: mouse model of Parkinson's disease; conditions: cited from earlier work
Kv7.2 channels = Kv7.2 channels (Homo sapiens, UniProt O43526); assay: Kv7.2 thallium flux assay in HEK 293 cells; assay type: cell-based; conditions: for fold lower potency in Kv7.2 assay relative to DMP 543: compared with DMP 543
Kv7.2 channels, sequence (O43526 whole entry): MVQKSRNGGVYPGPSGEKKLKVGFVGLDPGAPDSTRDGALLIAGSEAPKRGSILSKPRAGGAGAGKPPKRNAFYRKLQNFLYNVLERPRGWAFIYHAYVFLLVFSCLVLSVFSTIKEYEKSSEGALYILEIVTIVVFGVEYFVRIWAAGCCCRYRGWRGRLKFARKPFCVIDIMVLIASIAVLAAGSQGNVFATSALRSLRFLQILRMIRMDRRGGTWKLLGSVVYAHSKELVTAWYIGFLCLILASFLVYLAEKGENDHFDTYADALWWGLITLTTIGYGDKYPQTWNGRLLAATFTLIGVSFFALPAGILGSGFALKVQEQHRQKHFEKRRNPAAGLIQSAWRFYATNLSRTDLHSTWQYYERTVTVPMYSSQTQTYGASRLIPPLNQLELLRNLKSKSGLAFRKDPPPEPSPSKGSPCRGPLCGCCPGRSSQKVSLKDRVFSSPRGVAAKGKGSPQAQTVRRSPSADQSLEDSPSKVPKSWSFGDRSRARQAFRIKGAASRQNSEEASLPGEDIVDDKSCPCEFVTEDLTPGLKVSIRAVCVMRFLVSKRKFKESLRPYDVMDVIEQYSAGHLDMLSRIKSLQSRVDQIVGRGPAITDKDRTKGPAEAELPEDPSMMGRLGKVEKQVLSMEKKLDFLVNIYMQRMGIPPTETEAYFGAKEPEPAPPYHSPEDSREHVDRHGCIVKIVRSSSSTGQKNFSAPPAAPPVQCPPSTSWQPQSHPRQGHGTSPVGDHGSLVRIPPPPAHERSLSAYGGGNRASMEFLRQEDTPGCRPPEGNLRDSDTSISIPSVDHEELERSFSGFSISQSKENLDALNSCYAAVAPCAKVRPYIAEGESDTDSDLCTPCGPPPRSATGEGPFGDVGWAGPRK

40 targets, mostly GPCRs = conditions: 10 μM, NIMH PDSP
hepG2 cells = conditions: CellTiter-Glo
[2] = cited from earlier work
Alzheimer's patients = conditions: cited from earlier work

hERG channels, sequence (Q12809 whole entry): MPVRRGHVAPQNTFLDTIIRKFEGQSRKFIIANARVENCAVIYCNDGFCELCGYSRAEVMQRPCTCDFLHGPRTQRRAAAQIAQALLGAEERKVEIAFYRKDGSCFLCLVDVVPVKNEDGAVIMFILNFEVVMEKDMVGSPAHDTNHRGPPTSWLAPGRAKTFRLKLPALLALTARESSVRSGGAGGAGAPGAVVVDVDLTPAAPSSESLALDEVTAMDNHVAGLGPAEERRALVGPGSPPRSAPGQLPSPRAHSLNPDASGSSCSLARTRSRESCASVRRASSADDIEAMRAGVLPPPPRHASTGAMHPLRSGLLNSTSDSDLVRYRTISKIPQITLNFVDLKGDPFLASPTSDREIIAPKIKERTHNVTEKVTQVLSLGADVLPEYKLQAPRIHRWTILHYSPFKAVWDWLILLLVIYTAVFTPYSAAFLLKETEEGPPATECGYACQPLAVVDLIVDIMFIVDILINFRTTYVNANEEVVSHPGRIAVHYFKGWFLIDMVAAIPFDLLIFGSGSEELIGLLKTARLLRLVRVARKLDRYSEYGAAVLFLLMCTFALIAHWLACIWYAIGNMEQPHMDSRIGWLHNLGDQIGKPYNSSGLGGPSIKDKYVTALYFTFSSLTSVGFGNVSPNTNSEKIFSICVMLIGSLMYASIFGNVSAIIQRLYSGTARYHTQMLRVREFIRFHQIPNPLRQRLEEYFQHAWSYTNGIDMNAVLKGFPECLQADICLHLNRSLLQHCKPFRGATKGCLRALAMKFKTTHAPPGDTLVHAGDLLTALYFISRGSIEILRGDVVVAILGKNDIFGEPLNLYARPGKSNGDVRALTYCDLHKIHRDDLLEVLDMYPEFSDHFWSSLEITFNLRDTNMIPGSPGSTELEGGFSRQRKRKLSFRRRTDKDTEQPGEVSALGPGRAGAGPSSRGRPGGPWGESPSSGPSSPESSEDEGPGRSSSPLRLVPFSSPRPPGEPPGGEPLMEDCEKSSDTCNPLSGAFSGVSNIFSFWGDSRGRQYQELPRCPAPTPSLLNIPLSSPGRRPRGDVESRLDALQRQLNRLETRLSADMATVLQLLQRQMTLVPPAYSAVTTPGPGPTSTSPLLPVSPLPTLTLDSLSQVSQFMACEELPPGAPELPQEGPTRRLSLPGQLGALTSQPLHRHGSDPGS

## O=C1c2ccccc2C(Cc2ccnnc2)(Cc2ccnnc2)c2ccccc21 [compound 7]
hERG channels; thallium flux
  hERG flux IC50: inactive

## O=C1c2ccccc2C(Cc2c(F)cncc2F)(Cc2c(F)cncc2F)c2ccccc21 [compound 6]
Acid stability
  acid stability, percent remaining: no degradation

## O=C1c2ccccc2C(Cc2ccncc2)(Cc2ccncc2)c2ccccc21 [XE991, 10,10-Bis(4-Pyridinylmethyl)-9(10H)-Anthracenone]
ACh release
  EC50: 400 nM
[1]
  neuroprotection: acts as a neuroprotective agent
hERG channels
  IC50: > 32000 nM

## O=C1c2ccccc2C(Cc2ccnnc2)(Cc2c(F)cncc2F)c2ccccc21 [JDP-107 (18)]
Kv7.2 channels
  IC50: 180 nM
  fold lower potency in Kv7.2 assay relative to DMP 543: approximately 3 fold
Acid stability
  acid stability, percent remaining: no degradation
40 targets, mostly GPCRs
  Off-target activities: number of targets (of 40) with >30% binding: 5
hERG channels
  IC50: > 32000 nM
hERG channels; 1 μM, thallium flux
  hERG channel inhibition at 1 μM: no inhibition

## O=C1c2ccccc2C(Cc2ccnc(C(F)(F)F)c2)(Cc2ccnc(C(F)(F)F)c2)c2ccccc21 [compound 5]
Kv7.2 channels
  fold lower potency in Kv7.2 assay relative to DMP 543: ~ 100 fold
hERG channels; thallium flux
  hERG flux IC50: inactive

## O=C1c2ccccc2C(Cc2ccnc(F)c2)(Cc2ccnc(F)c2)c2ccccc21 [DMP 543, 10,10-Bis[(2-Fluoro-4-Pyridinyl)Methyl]-9(10 H)-Anthracenone]
hepG2 cells
  cytotoxicity CC50, hepG2 cells: low cytotoxicity
40 targets, mostly GPCRs
  Off-target activities: number of targets (of 40) with >30% binding: 6
[2]
  aqueous solubility: 6 µM (≈ 2.47 µg/mL)
physchem
  solubility kinetic: 22 µM (≈ 9.07 µg/mL)

## O=C1N(c2ccccc2)c2ccccc2C1(Cc1ccncc1)Cc1ccncc1 [Linopirdine, 3,3-Bis(4-Pyrindinylmethyl)-1-Phenylindolin-2-One]
Alzheimer's patients
  efficacy as cognitive enhancer in phase 3 trial: ineffective
  tolerability in phase 3 trial: well-tolerated

## Cc1cc(CC2(Cc3ccnc(C)c3)c3ccccc3C(=O)c3ccccc32)ccn1 [compound 8]
hERG channels; thallium flux
  hERG flux IC50: inactive
